Among the data in patent US6440979B1, “Aryl isoguanines” (Euro-Celtique, S.A., priority 1994, dated 2002) are melting point and IC50 values, retold here.

Series [1] deals with T1, Type III PDE isolated from human platelets (Homo sapiens, UniProt Q14432).
T1 construct: Fractions containing PDE III activity are pooled and dialyzed overnight; from tissue; host or cells: human platelets (100,000 x g supernatant, DEAE-Trisacryl M fraction)
As to the kind of experiment: Type III PDE inhibition, hydrolysis of [3H]-cyclic AMP. The series is classed as biochemical. The protocol: The Type III PDE is isolated from human platelets using a procedure similar to that previously described by Weishaar, R. E. et al., Biochem. Pharmacol., 35:787, 1986. Briefly, 1-2 units of platelets are suspended in an equal volume of buffer (20 mM Tris-HCl, pH 7.5, containing 2 mM magnesium acetate, 1 mM dithiothreitol, and 5 mM Na2 EDTA). The proteinase inhibitor phenylmethyl-sulfonyl fluoride (PMSF) is also included in this buffer at a final concentration of 200 μM. The suspension is homogenized using a polytron and the homogenate centrifuged at 100,000×g for 60 minutes. This and all subsequent procedures are performed at 0-4° C. The supernatant is then filtered through four layers of gauze and applied to a DEAE-Trisacryl M column, previously equilibrated with buffer B (20 mM Tris-HCl, pH 7.5, containing 1 mM magnesium acetate, 1 mM dithiothreitol and 200 μM PMSF). After application of the sample, the column is washed with several bed volumes of buffer B, after which the different forms of PDE are eluted from the column using two successive linear NaCl gradients (0.05-0.15 M, 300 ml total; 0.15-0.40 Ma 200 ml total); Five ml fractions are collected and assayed for cyclic AMP and cyclic GMP PDE activity., Fractions containing PDE III activity are pooled and dialyzed overnight against 4 L of buffer B. The dialyzed PDE III is then concentrated to 10% of the original volume, diluted to 50% with ethylene glycol monoethyl ether and stored at −20° C. PDE III can typically be retained for up to four weeks with little or no loss of activity.
Enzyme activity is assessed by measuring the hydrolysis of [(^3H]-cyclic AMP, as described by Thompson, W. J. et al., Adv. Cyclic Nucleotide Res. 10:69, 1979. The cyclic AMP concentration used in this assay is 0.2 μM, which approximates to the Km value. Protein concentration is adjusted to ensure that no more than 15% of the available substrate is hydrolyzed during the incubation period.
(§1) All test compounds are dissolved in dimethyl sulfoxide (final concentration of 2.5%). This concentration of dimethyl sulfoxide inhibits enzyme activity by approximately 10%.
(§2) The compounds are tested over concentration range: 0.1, 1, 10, 100 uM (n=1), and IC50 determinations are made using 5 appropriate concentrations (n=2).

Series [2] deals with T2, Type V PDE isolated from platelets (Homo sapiens, UniProt O76074).
T2 construct: Fractions that contain PDE V are pooled and dialyzed overnight; from tissue
As to the kind of experiment: Type V PDE inhibition, hydrolysis of [3H]-cyclic GMP. The series is classed as biochemical. To be noted: cyclic GMP 0.2 uM; 2.5% DMSO. As for the experimental part:
The Type V PDE is isolated using a procedure similar to that previously described by Weishaar et al., Hypertension 15:528, (1990). Briefly, 1-2 units of platelets are suspended in an equal volume of buffer A (20 mM Tris-HCl, pH 7.5, containing 2 mM magnesium acetate, 1 mM dithiothreitol, and 5 mM Na2EDTA) using a polytron. The proteinase inhibitor phenylmethylsulfonyl fluoride (PMSF) are also included in this buffer at a final concentration of 200 uM. This and all subsequent procedures are performed at 0-4° C. The homogenate is then centrifuges at 100,000×g for 60 minutes. The supernatant is then removed and filtered through four layers of gauze and applied to a DEAE-Trisacryl M column. The column is washed with several bed volumes of buffer B (20 mM Tris-HCl, pH 7.5, containing 2 mM magnesium acetate, 1 mM diothiothreitol, and 200 uM PMSF) and eluted by two successive linear NaCl gradients (0.05-0.15 M, 300 ml total; 0.15-0.40 M, 200 ml total). Five ml fractions are collected and assayed for cyclic AMP and cyclic GMP PDE activity. Fractions that contain PDE V are pooled and dialyzed overnight against 4 L of buffer C (20 mm Tris-HCl, pH 7.5, containing 2 mM magnesium acetate and proteinase inhibitors). The dialyzed PDE V is then concentrated to 10% of the original volume, diluted to 50% with ethylene glycol monoethyl ether and stored at −20° C. PDE V can typically be retained for up to four weeks with little or no loss of activity.
Enzyme activity are assessed by measuring the hydrolysis of [^3H]-cyclic […], as described by Thompson et al. (Thompson, W. J., Teraski, W. L., Epstein, P. N., Strada, S. J.: Adv. Cyclic Nucleotide Res. 10:69, 1979). The cyclic GMP concentration used in this assay is 0.2 uM, which approximates to the Km value. Protein concentration is adjusted to ensure that no more than 15% of the available substrate is hydrolyzed during the incubation period.
All test compounds are dissolved in dimethyl sulfoxide (final concentration of 2.5%). […] The reference Type V PDE inhibitor zaprinast is evaluated with each assay.
as §2

Series [3] relates to PDE IV isolated from bovine tracheal smooth muscle. Description: Type IV PDE inhibition, hydrolysis of [3H]-cyclic AMP. To be noted: cyclic AMP 0.2 μM; 2.5% DMSO. In kind it is biochemical.
Text: The PDE IV inhibitory compounds of the present invention may be examined for their PDE IV inhibitory effects via the techniques set forth in the following examples, wherein the ability of the compounds to inhibit PDE IV isolated from bovine tracheal smooth muscle is set forth.
The Type IV PDE is isolated from bovine tracheal smooth muscle using a procedure similar to that previously described by Silver, P. J. et al., Eur. J. Pharmacol. 150:85,1988. Briefly, smooth muscle from bovine trachea is minced and homogenized using a polytron in 10 volumes of an extraction buffer containing 10 mm Tris-acetate (pH 7.5), 2 mM magnesium chloride, 1 mM dithiothreitol and 2,000 units/ml of aprotinin. This and all subsequent procedures are performed at 0-4° C. The homogenate is sonicated and then centrifuged at 48,000×g for 30 minutes. The resulting supernatant is applied to a DEAE Trisacryl M column previously equilibrated with sodium acetate and dithiothreitol. After applications of the sample, the column is washed with sodium acetate/dithiothreitol, after which the different forms of PDE are eluted from the column using a linear Tris-HCl/NaCl gradient. Fractions containing Type IV PDE are collected, dialyzed and concentrated to 14% of the original volume. The concentrated fractions are diluted to 50% with ethylene glycol and stored at −20° C.
Enzyme activity is assessed by measuring the hydrolysis of [^3H]-cyclic AMP, as described by Thompson, W. J. et al., Adv. Cyclic Nucleotide Res. 10:69, 1979. The cyclic AMP concentration used in this assay is 0.2 μM, which approximates the Km value. Protein concentration is adjusted to ensure that no more than 15% of the available substrate is hydrolyzed during the incubation period.
as §1, §2

[4] abbreviates: cyclic AMP 0.2 μM, 2.5% DMSO, read-out: PDE ACTIVITY IC50 PDE III.

pIC50: −log10 of the molar value. Like-named read-outs stand apart in the source and are kept apart here.

T1 sequence (Q14432 whole entry): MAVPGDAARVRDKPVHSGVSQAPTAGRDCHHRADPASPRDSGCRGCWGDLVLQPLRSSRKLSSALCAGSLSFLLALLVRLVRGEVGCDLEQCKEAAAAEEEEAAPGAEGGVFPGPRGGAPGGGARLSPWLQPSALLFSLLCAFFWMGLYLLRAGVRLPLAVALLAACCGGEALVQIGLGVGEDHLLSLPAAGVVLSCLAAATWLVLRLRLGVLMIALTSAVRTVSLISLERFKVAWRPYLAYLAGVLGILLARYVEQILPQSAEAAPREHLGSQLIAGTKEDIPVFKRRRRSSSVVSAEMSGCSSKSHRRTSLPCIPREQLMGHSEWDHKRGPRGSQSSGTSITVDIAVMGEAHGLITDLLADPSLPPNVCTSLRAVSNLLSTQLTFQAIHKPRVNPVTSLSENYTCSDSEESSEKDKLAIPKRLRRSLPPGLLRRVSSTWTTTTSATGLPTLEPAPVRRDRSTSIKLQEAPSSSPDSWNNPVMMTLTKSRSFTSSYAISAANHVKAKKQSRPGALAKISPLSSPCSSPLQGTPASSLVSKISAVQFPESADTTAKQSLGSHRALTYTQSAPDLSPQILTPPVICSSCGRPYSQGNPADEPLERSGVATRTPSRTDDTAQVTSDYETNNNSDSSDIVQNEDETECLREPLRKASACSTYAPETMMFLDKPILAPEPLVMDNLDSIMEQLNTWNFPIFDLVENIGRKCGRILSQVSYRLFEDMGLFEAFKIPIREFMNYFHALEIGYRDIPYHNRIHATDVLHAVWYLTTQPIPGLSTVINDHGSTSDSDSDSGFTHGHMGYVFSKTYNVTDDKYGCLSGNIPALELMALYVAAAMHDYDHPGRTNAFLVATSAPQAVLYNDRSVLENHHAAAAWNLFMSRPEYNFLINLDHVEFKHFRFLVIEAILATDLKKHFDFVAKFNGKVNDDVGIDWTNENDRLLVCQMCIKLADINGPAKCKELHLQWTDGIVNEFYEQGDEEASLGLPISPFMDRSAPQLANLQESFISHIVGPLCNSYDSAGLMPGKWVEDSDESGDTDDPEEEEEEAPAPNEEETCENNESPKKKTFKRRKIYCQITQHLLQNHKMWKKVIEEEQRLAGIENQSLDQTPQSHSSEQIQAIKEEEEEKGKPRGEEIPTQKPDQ

By melting point is commonly meant the temperature, or range, at which the solid turns liquid. Take `COc1ccc(Cn2c(=O)[nH]c(=S)c3[nH]c(C(C)C)nc32)cc1OC1CCCC1` (hydrate or solvate) [Ex. 1, 3-(3-Cyclopentyloxy-4-methoxy-benzyl)-8-isopropyl-6-thioxanthine]: the melting point is 192 to 193 °C.

One may read the pIC50 as −log10 of the IC50, conventionally taken in molar units. Regarding `COc1ccc(Cn2c(=O)[nH]c(=S)c3[nH]c(C(C)C)nc32)cc1OC1CCCC1` [Ex. 1, 3-(3-Cyclopentyloxy-4-methoxy-benzyl)-8-isopropyl-6-thioxanthine], the pIC50 in series [1] (setting [4]) was 4.60; in series [1] (read-out: IC50 for PDE III inhibition), about 4.60; in series [2] it was 4.59.

With `O=c1[nH]c(=S)c2[nH]cnc2n1Cc1ccc(Cl)cc1` [Ex. 2, 3-(4-Chlorobenzyl)-6-thioxanthine], the melting point lay in the range of 313 to 317 °C. The molecule further showed a pIC50 in series [3] of 4.11. Moreover, the pIC50 in series [1] (setting [4]) is 4.60.

As for `CC(C)c1nc2c([nH]1)c(=S)[nH]c(=O)n2Cc1ccncc1` [Ex. 3, 8-Isopropyl-3-(4-picolyl)-6-thioxanthine], the melting point was 310 to 314 °C (dec.). In series [3], this molecule showed a pIC50 of 4.74. For the same molecule, in series [1] (setting [4]), the pIC50 was 3.67.

Molecule `CC(C)c1nc2c([nH]1)c(=S)[nH]c(=O)n2Cc1cccc(Cl)c1` [Ex. 4, 3-(3-Chlorobenzyl)-8-isopropyl-6-thioxanthine] returned a melting point of 218 to 220 °C. The same molecule showed a pIC50 in series [3] of 5.39. The pIC50 in series [1] (setting [4]) was 4.36. In series [2], this molecule had a pIC50 of 6.15.

For `CC(C)c1nc2c([nH]1)c(=S)[nH]c(=O)n2Cc1ccc(Cl)cc1` [Ex. 5a, 3-(4-Chlorobenzyl)-8-isopropyl-6-thioxanthine], the pIC50 in series [3] was 5.07; in series [1] (setting [4]) it was 4.54; in series [2], 5.70.

With `CCNc1nc(=O)n(Cc2ccc(Cl)cc2)c2nc(C(C)C)[nH]c12` [Ex. 5b, 3-(4-Chlorobenzyl)-N^6-ethyl-8-isopropyl-isoguanine], the pIC50 is 5.03 in series [3], 3.50 in series [1] (setting [4]) and 6.30 in series [2].

As to `CCCNc1nc(=O)n(CC2CC2)c2nc(C(C)C)[nH]c12` [Ex. 6, 3-Cyclopropylmethyl-8-isopropyl-N^6-propyl-isoguanine], the melting point lay in the range of 208 to 210 °C. For the same molecule, the pIC50 in series [3] was 4.62. Besides, the pIC50 in series [1] (setting [4]) is 3.31.

Regarding `CCNc1nc(=O)n(CC)c2nc(C3CC3)[nH]c12` [Ex. 7, 8-Cyclopropyl-3, N^6-diethyl-isoguanine], the pIC50 is 4.29 in series [3] and 3.68 in series [1] (setting [4]).

The molecule `CCn1c(=O)[nH]c(=S)c2[nH]c(Cc3ccc(OC)c(OC4CCCC4)c3)nc21` [Ex. 8, 8-(3-cyclopentyloxy-4-methoxybenzyl)-3-ethyl-6-thio-xanthine] came in with a melting point of 195 to 197 °C. The molecule further had a pIC50 in series [3] of 5.40. The pIC50 in series [1] (setting [4]) was 4.55. In addition, the pIC50 in series [2] is 4.62.

As for `CCCn1c(=O)[nH]c(=S)c2[nH]c(Cc3ccc(OC)c(OC)c3)nc21` [Ex. 9, 8-(3,4-dimethoxybenzyl)-3-propyl-6-thio-xanthine], the melting point is 237 to 239 °C. The same molecule had a pIC50 in series [3] of 5.07. In addition, the negative-log IC50 (pIC50) in series [1] (setting [4]) was 4.63.

On to `CCCn1c(=O)[nH]c(=S)c2[nH]c(Cc3ccc4ccccc4c3)nc21` [Ex. 10, 8-(2-naphthylmethyl)-3-propyl-6-thio-xanthine], for which the melting point lay within 220 to 223 °C. This molecule gave a pIC50 in series [3] of 5.55. Also, the pIC50 in series [1] (setting [4]) is 5.57. Moreover, the pIC50 in series [2] was 5.42.

`CC(C)c1nc2c([nH]1)c(=S)[nH]c(=O)n2-c1cccc(Cl)c1` [Ex. 11, 3-(3-Chlorophenyl)-8-isopropyl-6-thioxanthine]: the figures for the pIC50 in series [1] (setting [4]) and in series [2] were 3.51 and 4.18, respectively.

For the molecule `COc1ccc(C2CNC(=O)C2)cc1OC1CCCC1` (centres unmarked) [Rolipram, reference compound], the negative-log IC50 (pIC50) was 5.59 in series [3] and 3.10 in series [1] (setting [4]).

As for `CCNc1nc(=O)n(Cc2ccc(OC)c(OC3CCCC3)c2)c2nc(C(C)C)[nH]c12` [compound 12, 3-(3-Cyclopentyloxy-4-methoxy-benzyl)-N^6-ethyl-8-isopropyl-isoguanine], the melting point lay within 110 to 115 °C.
